Key:
[1] = molecular target: T1, Alpha-2B adrenergic receptor (Rattus norvegicus, UniProt P19328); test: Ancillary Binding affinity towards rat alpha-2B receptor
T1 sequence (P19328 whole entry): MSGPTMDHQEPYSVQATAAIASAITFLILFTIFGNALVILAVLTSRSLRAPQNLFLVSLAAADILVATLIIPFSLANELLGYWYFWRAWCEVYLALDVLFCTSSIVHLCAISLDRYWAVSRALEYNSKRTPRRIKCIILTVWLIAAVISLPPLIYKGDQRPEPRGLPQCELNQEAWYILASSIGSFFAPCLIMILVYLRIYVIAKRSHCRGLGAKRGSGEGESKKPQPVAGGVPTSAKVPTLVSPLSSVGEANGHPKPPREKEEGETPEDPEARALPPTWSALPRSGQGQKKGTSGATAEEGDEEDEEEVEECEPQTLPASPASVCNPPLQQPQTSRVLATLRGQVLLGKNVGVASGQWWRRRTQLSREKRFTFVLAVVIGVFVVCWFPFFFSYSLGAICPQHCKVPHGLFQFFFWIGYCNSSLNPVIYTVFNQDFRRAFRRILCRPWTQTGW

[2] = molecular target: T2, Alpha-2C adrenergic receptor (Homo sapiens, UniProt P18825); test: Ancillary Binding affinity to cloned human Alpha-2C adrenergic receptor
T2 sequence (P18825 whole entry): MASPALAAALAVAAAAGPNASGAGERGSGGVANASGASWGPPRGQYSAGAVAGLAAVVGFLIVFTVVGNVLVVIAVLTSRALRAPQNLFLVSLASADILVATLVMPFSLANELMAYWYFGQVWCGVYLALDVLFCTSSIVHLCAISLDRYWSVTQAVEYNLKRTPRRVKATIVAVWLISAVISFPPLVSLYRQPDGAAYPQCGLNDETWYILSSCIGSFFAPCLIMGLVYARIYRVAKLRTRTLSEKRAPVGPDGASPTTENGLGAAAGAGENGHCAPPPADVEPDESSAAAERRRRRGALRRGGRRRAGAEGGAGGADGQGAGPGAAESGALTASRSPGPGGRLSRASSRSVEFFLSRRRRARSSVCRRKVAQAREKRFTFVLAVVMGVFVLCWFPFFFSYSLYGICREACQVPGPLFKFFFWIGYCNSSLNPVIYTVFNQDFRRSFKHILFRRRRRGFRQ

D(1A) dopamine receptor = D(1A) dopamine receptor (Rattus norvegicus, UniProt P18901); test: Ancillary Binding affinity to rat Dopamine receptor D1
[3] = molecular target: T3, Alpha-1A adrenergic receptor (Rattus norvegicus, UniProt P43140); test: Binding affinity towards rat Alpha-1A adrenergic receptor
T3 sequence (P43140 whole entry): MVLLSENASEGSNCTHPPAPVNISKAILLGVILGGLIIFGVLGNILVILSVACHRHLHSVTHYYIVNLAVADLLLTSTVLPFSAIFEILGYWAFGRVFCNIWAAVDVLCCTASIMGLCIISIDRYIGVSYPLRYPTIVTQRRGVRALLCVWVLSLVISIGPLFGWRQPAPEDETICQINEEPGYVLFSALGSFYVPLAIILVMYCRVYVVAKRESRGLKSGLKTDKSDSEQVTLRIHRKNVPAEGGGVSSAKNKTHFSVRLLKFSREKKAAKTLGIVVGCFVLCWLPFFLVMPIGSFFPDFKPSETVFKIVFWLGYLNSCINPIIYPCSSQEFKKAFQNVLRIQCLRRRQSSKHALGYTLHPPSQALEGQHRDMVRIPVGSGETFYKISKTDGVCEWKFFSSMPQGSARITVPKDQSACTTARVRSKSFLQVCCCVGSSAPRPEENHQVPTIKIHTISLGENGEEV

[4] = molecular target: T4, Alpha-1A adrenergic receptor (Homo sapiens, UniProt P35348); test: Binding affinity for human Alpha-1A adrenergic receptor
T4 sequence (P35348 whole entry): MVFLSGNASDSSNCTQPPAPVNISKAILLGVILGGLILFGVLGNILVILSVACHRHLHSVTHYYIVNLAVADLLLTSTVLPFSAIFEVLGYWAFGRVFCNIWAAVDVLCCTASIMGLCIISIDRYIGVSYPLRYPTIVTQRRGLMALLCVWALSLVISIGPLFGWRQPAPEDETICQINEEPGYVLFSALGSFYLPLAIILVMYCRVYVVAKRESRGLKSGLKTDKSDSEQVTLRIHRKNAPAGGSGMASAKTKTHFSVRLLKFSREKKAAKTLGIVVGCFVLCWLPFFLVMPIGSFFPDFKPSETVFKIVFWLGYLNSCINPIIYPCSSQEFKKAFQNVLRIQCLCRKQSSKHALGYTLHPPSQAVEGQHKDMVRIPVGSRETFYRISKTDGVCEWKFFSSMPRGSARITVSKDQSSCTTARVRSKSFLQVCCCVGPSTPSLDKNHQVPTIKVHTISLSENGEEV

[5] = molecular target: T5, Alpha-1D adrenergic receptor (Rattus norvegicus, UniProt P23944); test: Binding affinity towards rat Alpha-1D adrenergic receptor
T5 sequence (P23944 whole entry): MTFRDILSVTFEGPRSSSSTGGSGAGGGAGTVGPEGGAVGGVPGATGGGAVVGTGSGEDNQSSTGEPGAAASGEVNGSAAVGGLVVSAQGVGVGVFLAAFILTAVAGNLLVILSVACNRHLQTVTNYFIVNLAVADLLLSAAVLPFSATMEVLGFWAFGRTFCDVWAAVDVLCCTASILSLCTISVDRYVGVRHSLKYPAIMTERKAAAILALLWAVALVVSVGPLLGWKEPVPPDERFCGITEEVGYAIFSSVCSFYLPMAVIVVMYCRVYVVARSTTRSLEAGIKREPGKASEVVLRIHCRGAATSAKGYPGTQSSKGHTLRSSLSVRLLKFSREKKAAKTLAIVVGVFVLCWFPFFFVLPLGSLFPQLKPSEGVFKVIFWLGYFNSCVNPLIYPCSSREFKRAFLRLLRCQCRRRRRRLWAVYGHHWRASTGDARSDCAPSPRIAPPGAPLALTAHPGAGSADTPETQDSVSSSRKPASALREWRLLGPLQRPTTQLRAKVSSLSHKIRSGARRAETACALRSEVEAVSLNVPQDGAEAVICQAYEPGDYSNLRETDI

Chain of D(1A) dopamine receptor (P18901 whole entry): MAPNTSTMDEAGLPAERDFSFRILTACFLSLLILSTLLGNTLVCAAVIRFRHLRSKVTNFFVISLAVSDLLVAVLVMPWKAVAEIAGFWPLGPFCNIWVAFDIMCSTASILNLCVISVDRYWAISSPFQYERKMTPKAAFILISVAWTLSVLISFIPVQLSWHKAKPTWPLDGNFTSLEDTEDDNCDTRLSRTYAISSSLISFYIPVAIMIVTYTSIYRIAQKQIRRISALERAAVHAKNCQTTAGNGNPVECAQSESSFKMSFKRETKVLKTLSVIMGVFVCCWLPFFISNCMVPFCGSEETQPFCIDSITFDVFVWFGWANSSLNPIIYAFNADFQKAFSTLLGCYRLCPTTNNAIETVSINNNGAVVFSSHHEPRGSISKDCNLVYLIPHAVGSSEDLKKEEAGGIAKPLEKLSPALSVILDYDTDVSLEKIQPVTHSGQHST

Ki [1] | Ki [2] | Ki (D(1A) dopamine receptor) | Ki [3] | Ki [4] | Ki [5] | SMILES
71 nM | 74.7 nM | 6090 nM | 2.43 nM | 2.63 nM | 0.213 nM | COc1ccccc1N1CCN(CCn2c(=O)[nH]c3scc(-c4ccccc4)c3c2=O)CC1 [A-119637]
66.6 nM | 82 nM | 12300 nM | 3.47 nM | 4.17 nM | 0.17 nM | COc1ccccc1N1CCN(CCn2c(=O)[nH]c3scc(-c4cccc(C)c4)c3c2=O)CC1 [A-123189]

From ChEMBL document CHEMBL1134245, “Two novel and potent 3-[(o-methoxyphenyl)piperazinylethyl]-5-phenylthien” (Bioorg Med Chem Lett, 2001)
